# Results: patent publication US10800791B2, “Triazole ACC inhibitors and uses thereof” (Gilead Apollo, LLC, priority 2015, dated 2020)
# Read-outs that look alike come from different tables or passages of the source.
# Assays:
# Diplodia maydis (Dm) = assay: Growth inhibition assay of fungal pathogens, Dm; type: cell-based; settings: Stenocarpella maydis, 48 h
# Procedure, shortened: (§1)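 Spore suspension in 17% V8 liquid media; cpd final 50/10/2 or 2/0.4/0.08 ppm, 2% DMSO. OD600 + visual, 24 & 48 h; % inhibition at 48 h vs 2% DMSO ctrl.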
# C. krusei = assay: Antifungal Activity Assay (broth microtiter MIC), C. krusei; type: cell-based, Candida krusei; settings: Pichia kudriavzevii, ATCC6258, 48 h
# Procedure, shortened: (§2)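 CLSI M27-A3 microdilution; RPMI 1640+MOPS; 2.5×10^3 CFU/mL final inoculum; cultures from Sabouraud dextrose agar, 35° C overnight; compound working solution 128 μg/mL from 1 mg/mL DMSO stock; visual MIC at 48 h vs growth control.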
# [1] = system: Fusarium moniliforme (Fm); assay: Growth inhibition assay of fungal pathogens, Fm; type: cell-based; settings: for IC90: Fusarium verticillioides, 48 h, read-out: Concentration at 90% Inhibition Fm
# Procedure, shortened: as §1
# [2] = system: Phytophthora capsici (Pc); assay: Growth inhibition assay of fungal pathogens, Pc; type: cell-based; settings: 48 h
# Procedure, shortened: as §1
# Botrtyis cinerea (Bc) = assay: Growth inhibition assay of fungal pathogens, Bc; type: cell-based; settings: 48 h
# Procedure, shortened: as §1
# C. albicans = assay: Antifungal Activity Assay (broth microtiter MIC), C. albicans; type: cell-based, Candida albicans; settings: Candida albicans, ATCC90028, 48 h
# Procedure, shortened: as §2
# fungal (fACC2) = fungal (fACC2) (UniProt Q00955); settings: read-out: fACC2 (in vitro ACC2 Inhibition Assay, IC50), ADP-Glo, 5 nM ACC2, 20 μM ATP, 20 μM acetyl-CoA
# Chain of fungal (fACC2) (Q00955 whole entry): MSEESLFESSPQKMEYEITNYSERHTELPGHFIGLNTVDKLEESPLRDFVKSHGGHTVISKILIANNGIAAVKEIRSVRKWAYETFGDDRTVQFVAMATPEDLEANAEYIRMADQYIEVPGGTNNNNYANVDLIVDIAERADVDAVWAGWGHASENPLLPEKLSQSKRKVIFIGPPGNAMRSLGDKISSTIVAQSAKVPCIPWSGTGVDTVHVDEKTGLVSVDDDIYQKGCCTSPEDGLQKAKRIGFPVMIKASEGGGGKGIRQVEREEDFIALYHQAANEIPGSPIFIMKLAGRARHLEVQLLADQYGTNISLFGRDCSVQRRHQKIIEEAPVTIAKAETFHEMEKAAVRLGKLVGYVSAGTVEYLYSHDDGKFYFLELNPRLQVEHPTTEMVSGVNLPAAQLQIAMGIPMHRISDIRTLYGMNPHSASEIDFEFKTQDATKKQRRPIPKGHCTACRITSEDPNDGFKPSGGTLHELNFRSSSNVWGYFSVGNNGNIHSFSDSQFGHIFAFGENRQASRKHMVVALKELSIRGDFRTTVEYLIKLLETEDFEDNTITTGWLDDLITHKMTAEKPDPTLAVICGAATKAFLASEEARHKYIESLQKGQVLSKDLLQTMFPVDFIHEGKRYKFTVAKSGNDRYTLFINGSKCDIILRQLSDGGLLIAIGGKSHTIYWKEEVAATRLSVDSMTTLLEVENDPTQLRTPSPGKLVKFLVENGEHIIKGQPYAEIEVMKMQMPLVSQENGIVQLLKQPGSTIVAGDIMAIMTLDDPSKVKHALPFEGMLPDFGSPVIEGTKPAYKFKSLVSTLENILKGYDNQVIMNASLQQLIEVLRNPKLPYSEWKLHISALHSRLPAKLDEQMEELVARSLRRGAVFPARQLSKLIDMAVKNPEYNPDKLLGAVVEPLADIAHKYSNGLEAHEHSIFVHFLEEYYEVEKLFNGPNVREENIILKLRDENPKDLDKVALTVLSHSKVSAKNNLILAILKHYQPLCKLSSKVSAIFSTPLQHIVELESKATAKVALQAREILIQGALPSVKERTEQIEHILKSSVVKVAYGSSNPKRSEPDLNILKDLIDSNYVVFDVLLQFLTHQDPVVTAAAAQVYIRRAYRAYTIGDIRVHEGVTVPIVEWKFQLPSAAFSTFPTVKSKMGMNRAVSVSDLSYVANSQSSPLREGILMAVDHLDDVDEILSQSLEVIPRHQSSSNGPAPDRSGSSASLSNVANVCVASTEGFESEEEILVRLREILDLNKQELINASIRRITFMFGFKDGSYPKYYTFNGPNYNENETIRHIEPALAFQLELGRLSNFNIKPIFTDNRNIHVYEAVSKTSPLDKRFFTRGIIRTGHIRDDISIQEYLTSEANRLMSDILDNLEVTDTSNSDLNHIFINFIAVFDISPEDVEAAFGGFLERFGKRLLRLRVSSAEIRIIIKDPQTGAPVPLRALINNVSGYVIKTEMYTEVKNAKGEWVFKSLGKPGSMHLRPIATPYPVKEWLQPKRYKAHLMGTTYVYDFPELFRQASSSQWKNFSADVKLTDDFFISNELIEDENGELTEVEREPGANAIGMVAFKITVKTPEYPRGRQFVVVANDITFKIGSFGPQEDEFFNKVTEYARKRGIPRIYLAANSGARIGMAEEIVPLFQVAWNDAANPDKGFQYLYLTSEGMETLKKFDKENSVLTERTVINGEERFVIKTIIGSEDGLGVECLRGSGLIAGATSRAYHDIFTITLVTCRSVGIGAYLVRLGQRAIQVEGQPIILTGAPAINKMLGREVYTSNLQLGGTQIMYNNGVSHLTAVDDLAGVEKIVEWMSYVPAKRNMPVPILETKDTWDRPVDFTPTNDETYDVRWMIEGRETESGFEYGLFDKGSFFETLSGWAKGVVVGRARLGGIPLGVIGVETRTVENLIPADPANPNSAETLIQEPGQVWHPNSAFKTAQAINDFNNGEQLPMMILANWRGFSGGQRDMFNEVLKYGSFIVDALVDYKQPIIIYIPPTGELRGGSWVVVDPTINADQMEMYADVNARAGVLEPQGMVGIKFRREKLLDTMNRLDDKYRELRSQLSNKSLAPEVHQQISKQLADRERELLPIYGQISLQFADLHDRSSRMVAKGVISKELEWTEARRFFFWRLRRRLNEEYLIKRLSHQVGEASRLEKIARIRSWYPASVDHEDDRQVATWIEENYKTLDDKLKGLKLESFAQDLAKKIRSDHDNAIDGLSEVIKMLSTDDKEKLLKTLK
# Septoria tritici (St) = assay: Growth inhibition assay of fungal pathogens, St; type: cell-based; settings: Zymoseptoria tritici, 48 h
# Procedure, shortened: as §1
# [3] = system: Collectotrichum graminicola (Cg); assay: Growth inhibition assay of fungal pathogens, Cg; type: cell-based; settings: 48 h
# Procedure, shortened: as §1
# C. parapsilosis = assay: Antifungal Activity Assay (broth microtiter MIC), C. parapsilosis; type: cell-based, Candida parapsilosis; settings: Lodderomyces parapsilosis, ATCC22019, 48 h
# Procedure, shortened: as §2
# [4] = system: Fusarium virguliforme (Fv); assay: Growth inhibition assay of fungal pathogens, Fv; type: cell-based; settings: 48 h
# Procedure, shortened: as §1
# [5] = Fusarium moniliforme, growth inhibition at 48 hours vs 2% DMSO control
compound,measurement,setting,value
"COc1ccc(F)cc1[C@H](Cn1c(=O)n([C@H](C)C(=O)NC(C)C)c(=O)c2c(C)c(-n3nccn3)sc21)OCCO [Compound I-89, (R)-2-(1-((R)-2-(5-fluoro-2-methoxyphenyl)-2-(2-hydroxy-ethoxy)ethyl)-5-methyl-2,4-dioxo-6-(2H-1,2,3-triazol-2-yl)-1,4-dihydrothieno[2,3-d]pyrimidin-3(2H)-yl)-N-isopropylpropanamide]",IC90,"Diplodia maydis (Dm); read-out: Concentration at 90% Inhibition Dm, Diplodia maydis, growth inhibition at 48 hours vs 2% DMSO control",2 µg/mL
same,IC90,"Diplodia maydis (Dm); read-out: Concentration at 90% Inhibition Dm, Diplodia maydis, growth inhibition vs 2% DMSO control at 48 hours",10 µg/mL
same,MIC,"C. krusei; read-out: MIC, C. krusei ATCC 6258, Table 3a, 3 replicates, MIC recorded at 48 h",2.1 to 4 µg/mL
same,MIC,"C. krusei; read-out: MIC, C. krusei ATCC 6258, Table 3b (additional results), 3 replicates, MIC recorded at 48 h",1.01 to 2 µg/mL
same,Concentration at 90% Inhibition Fm,[1]; [5],AA (compound concentration of 0.08 ppm at 90% inhibition of fungal pathogens)
same,IC90,[1],0.08 µg/mL
same,IC90,"[2]; read-out: Concentration at 90% Inhibition Pc, Phytophthora capsici, growth inhibition at 48 hours vs 2% DMSO control",> 50 µg/mL
same,IC90,"[2]; read-out: Concentration at 90% Inhibition Pc, Phytophthora capsici, growth inhibition vs 2% DMSO control at 48 hours",> 50 µg/mL
same,IC90,"Botrtyis cinerea (Bc); read-out: Concentration at 90% Inhibition Bc, Botrtyis cinerea, growth inhibition at 48 hours vs 2% DMSO control",0.4 µg/mL
same,IC90,"Botrtyis cinerea (Bc); read-out: Concentration at 90% Inhibition Bc, Botrtyis cinerea, growth inhibition vs 2% DMSO control at 48 hours",0.4 µg/mL
same,MIC,"C. albicans; read-out: MIC, C. albicans ATCC 90028, Table 3a, 3 replicates, MIC recorded at 48 h",2.1 to 4 µg/mL
same,MIC,"C. albicans; read-out: MIC, C. albicans ATCC 90028, Table 3b (additional results), 3 replicates, MIC recorded at 48 h",2.01 to 4 µg/mL
same,IC50,fungal (fACC2); Table 2a,1 to 5 nM
same,IC50,"fungal (fACC2); Table 2b, additional results",1 to 5 nM
same,IC90,"Septoria tritici (St); read-out: Concentration at 90% Inhibition St, Septoria tritici, growth inhibition at 48 hours vs 2% DMSO control",> 50 µg/mL
same,IC90,"Septoria tritici (St); read-out: Concentration at 90% Inhibition St, Septoria tritici, growth inhibition vs 2% DMSO control at 48 hours",> 50 µg/mL
same,IC90,"[3]; read-out: Concentration at 90% Inhibition Cg, Collectotrichum graminicola, growth inhibition at 48 hours vs 2% DMSO control",> 50 µg/mL
same,IC90,"[3]; read-out: Concentration at 90% Inhibition Cg, Collectotrichum graminicola, growth inhibition vs 2% DMSO control at 48 hours",> 50 µg/mL
same,MIC,"C. parapsilosis; read-out: MIC, C. parapsilosis ATCC 22019, Table 3a, 3 replicates, MIC recorded at 48 h",2.1 to 4 µg/mL
same,MIC,"C. parapsilosis; read-out: MIC, C. parapsilosis ATCC 22019, Table 3b (additional results), 3 replicates, MIC recorded at 48 h",1.01 to 2 µg/mL
same,IC90,"[4]; read-out: Concentration at 90% Inhibition Fv, Fusarium virguliforme, growth inhibition at 48 hours vs 2% DMSO control",2 µg/mL
same,IC90,"[4]; read-out: Concentration at 90% Inhibition Fv, Fusarium virguliforme, growth inhibition vs 2% DMSO control at 48 hours",2 µg/mL
"COc1ccc(F)cc1[C@H](Cn1c(=O)n(C(C)(C)C(=O)NC(C)C)c(=O)c2c(C)c(-n3nccn3)sc21)OCCC(N)=O [Compound I-90, (R)-2-(1-(2-(3-amino-3-oxopropoxy)-2-(5-fluoro-2-metho-xyphenyl)ethyl)-5-methyl-2,4-dioxo-6-(2H-1,2,3-triazol-2-yl)-1,4-dihydro-thieno[2,3-d]pyrimidin-3(2H)-yl)-N-isopropyl-2-methylpropanamide]",IC90,"Diplodia maydis (Dm); Diplodia maydis, growth inhibition at 48 hours vs 2% DMSO control, read-out: Concentration at 90% Inhibition Dm",> 50 µg/mL
same,IC90,"Diplodia maydis (Dm); Diplodia maydis, growth inhibition vs 2% DMSO control at 48 hours, read-out: Concentration at 90% Inhibition Dm",> 50 µg/mL
same,MIC,"C. krusei; Table 3a, ATCC 6258, 3 replicates, MIC recorded at 48 h, read-out: MIC, C. krusei ATCC 6258",1.1 to 2 µg/mL
same,MIC,"C. krusei; Table 3b (additional results), ATCC 6258, 3 replicates, MIC recorded at 48 h, read-out: MIC, C. krusei ATCC 6258",0.25 to 1 µg/mL
same,IC90,[1]; [5],0.4 µg/mL
same,IC90,"[1]; Fusarium moniliforme, growth inhibition vs 2% DMSO control at 48 hours",0.4 µg/mL
same,IC90,"[2]; growth inhibition at 48 hours vs 2% DMSO control, read-out: Concentration at 90% Inhibition Pc",> 50 µg/mL
same,IC90,"[2]; growth inhibition vs 2% DMSO control at 48 hours, read-out: Concentration at 90% Inhibition Pc",> 50 µg/mL
same,IC90,"Botrtyis cinerea (Bc); Botrtyis cinerea, growth inhibition at 48 hours vs 2% DMSO control, read-out: Concentration at 90% Inhibition Bc",2 µg/mL
same,IC90,"Botrtyis cinerea (Bc); Botrtyis cinerea, growth inhibition vs 2% DMSO control at 48 hours, read-out: Concentration at 90% Inhibition Bc",2 µg/mL
same,MIC,"C. albicans; Table 3a, ATCC 90028, 3 replicates, MIC recorded at 48 h, read-out: MIC, C. albicans ATCC 90028",2.1 to 4 µg/mL
same,MIC,"C. albicans; Table 3b (additional results), ATCC 90028, 3 replicates, MIC recorded at 48 h, read-out: MIC, C. albicans ATCC 90028",0.25 to 1 µg/mL
same,IC50,fungal (fACC2); Table 2a,1 to 5 nM
same,IC50,"fungal (fACC2); Table 2b, additional results",1 to 5 nM
same,IC90,"Septoria tritici (St); Septoria tritici, growth inhibition at 48 hours vs 2% DMSO control, read-out: Concentration at 90% Inhibition St",> 50 µg/mL
same,IC90,"Septoria tritici (St); Septoria tritici, growth inhibition vs 2% DMSO control at 48 hours, read-out: Concentration at 90% Inhibition St",> 50 µg/mL
same,IC90,"[3]; Collectotrichum graminicola, growth inhibition at 48 hours vs 2% DMSO control, read-out: Concentration at 90% Inhibition Cg",10 µg/mL
same,IC90,"[3]; Collectotrichum graminicola, growth inhibition vs 2% DMSO control at 48 hours, read-out: Concentration at 90% Inhibition Cg",> 50 µg/mL
same,MIC,"C. parapsilosis; Table 3a, ATCC 22019, 3 replicates, MIC recorded at 48 h, read-out: MIC, C. parapsilosis ATCC 22019",2.1 to 4 µg/mL
same,MIC,"C. parapsilosis; Table 3b (additional results), ATCC 22019, 3 replicates, MIC recorded at 48 h, read-out: MIC, C. parapsilosis ATCC 22019",0.25 to 1 µg/mL
same,IC90,"[4]; growth inhibition at 48 hours vs 2% DMSO control, read-out: Concentration at 90% Inhibition Fv",0.4 µg/mL
same,IC90,"[4]; growth inhibition vs 2% DMSO control at 48 hours, read-out: Concentration at 90% Inhibition Fv",0.4 µg/mL
